From patent US20080269293A1, “PYRAZOLE DERIVATIVES AS ANTI-PLATELET AND ANTI-THROMBOTIC AGENTS” (Pfizer Inc., priority 2006, published 2008)

Target: T1, platelet P2Y1 receptor (Homo sapiens, UniProt P47900)
T1 construct: expressed in transfected cells
Test: P2Y1 receptor binding assay ([β-33P]-2-thiomethyl ADP)
Conditions: binding of 0.3 nM [β-33P]-2-thiomethyl ADP, hP2Y1 expressing 132N1 cell membrane, 25° C., 60 minutes
Description: Conducting P2Y, Receptor Binding Assay
[β−^33P]-2-thiomethyl ADP (2100 Ci/mmol) was purchased from PerkinElmer, Protease Inhibitors Complete, EDTA-free, was purchased from Roche, and ADP (Adenosine diphosphate), MRS2179, and 2-thiomethy ADP (2-Me-S-ADP) were purchased from Sigma Chemical Co.
Binding of 0.3 nM [β-^33P]-2-thiomethyl ADP to platelet P2Y1 receptor in 132N1 cell membrane was carried out in triplicate at 25° C. with 96 well plate (Corning, 3365). Nonspecific binding was defined as binding in the presence of 1 μM of 2-Me-S-ADP. One […] of dimethyl sulfoxide (DMSO) or 1 μL of DMSO (Sigma-Aldrich, 472301) containing a test compound diluted to final assay concentrations of 0.1 nM to 1 mM were placed into each well of a Corning 96-well plate. A volume of 60 μL of buffer: 50 mM Tris pH 7.5 (Sigma, T-2194), 1 mM EDTA (Gibco, 15575-038) and 100 mM NaCl (Gibco, 200740-011) containing 0.3 nM [β-^33P]-2-thiomethyl ADP 40 μL of hP2Y1 expressing 132N1 cell membrane prep was added to each well. After incubation on shaker for 60 minutes, The contents of the wells are filtered and washed 8 times with Tomtec Cell Harvester through UniFilter 96, GF/B plates (PerkinElmer, 6005177) Forty five microliters […] Scintillation cocktail (Ultima-Flo-M) was added into each well and plates counted on a Trilux Microbeta Counter.
• 1. Add 1 μL DMSO or compounds into the wells according to the protocol. • 2. Add 60 μL incubation buffer with [β-^33P]-2-thiomethyl ADP into each well. • 3. Add 40 μL hP2Y1 expressing 132N1 cell membrance prep. Incubate 60 minutes on top of the shaker (IKA Shutter MTS4). • 4. Filter and wash 8× with Tomtec Cell Harvester through UniFilter GF/B plates (PerkinElmer, 6005177). • 5. Add 45 μL scintillation cocktail into each well and plates counted on a Trilux Microbeta Counter.

T1 sequence (P47900 whole entry): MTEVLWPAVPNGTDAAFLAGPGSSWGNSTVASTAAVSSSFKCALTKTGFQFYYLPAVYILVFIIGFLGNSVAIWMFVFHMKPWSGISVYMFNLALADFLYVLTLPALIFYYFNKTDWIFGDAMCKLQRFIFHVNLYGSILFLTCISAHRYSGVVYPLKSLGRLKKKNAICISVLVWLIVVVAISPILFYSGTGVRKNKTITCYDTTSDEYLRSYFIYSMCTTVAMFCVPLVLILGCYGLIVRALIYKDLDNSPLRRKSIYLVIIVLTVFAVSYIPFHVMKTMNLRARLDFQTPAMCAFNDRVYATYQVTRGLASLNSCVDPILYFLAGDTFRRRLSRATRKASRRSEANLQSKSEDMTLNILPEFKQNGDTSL

Structure (SMILES) | IC50 [nM]
Cc1cc(Oc2ccccc2NC(=O)Nc2ccc(OC(F)(F)F)cc2)n(-c2ccc(C(C)(C)C)cc2)n1 [Example 97, 1-(2-(1-(4-tert-butylphenyl)-3-methyl-1H-pyrazol-5-yloxy)phenyl)-3-(4-(trifluoromethoxy)phenyl)urea] | 339
Cc1cc(Oc2ccccc2NC(=O)Nc2ccc(OC(F)(F)F)cc2)n(-c2cc(Cl)ccc2Cl)n1 [Example 98, 1-(2-(1-(2,5-dichlorophenyl)-3-methyl-1H-pyrazol-5-yloxy)phenyl)-3-(4-(trifluoromethoxy)phenyl)urea] | 68
CCc1ccccc1-n1nc(C)cc1Oc1ccccc1NC(=O)Nc1ccc(-c2cnco2)cc1 [Example 102, 1-(2-(1-(2-ethylphenyl)-3-methyl-1H-pyrazol-5-yloxy)phenyl)-3-(4-(oxazol-5-yl)phenyl)urea] | 1190
CCc1ccccc1-n1nc(C)cc1Oc1ccccc1NC(=O)Nc1ccc(CN2CCCCC2)cc1 [Example 105, 1-(2-(1-(2-ethylphenyl)-3-methyl-1H-pyrazol-5-yloxy)phenyl)-3-(4-(piperidin-1-ylmethyl)phenyl)urea] | > 10000
CCc1ccccc1-n1nc(C)cc1Oc1ccccc1NC(=O)Nc1ccc(F)cc1F [Example 106, 1-(2,4-difluorophenyl)-3-(2-(1-(2-ethylphenyl)-3-methyl-1H-pyrazol-5-yloxy)phenyl)urea] | 287
CCc1ccccc1-n1nc(C)cc1Oc1ccccc1NC(=O)Nc1ccc(C2CCCCC2)cc1 [Example 108, 1-(4-cyclohexylphenyl)-3-(2-(1-(2-ethylphenyl)-3-methyl-1H-pyrazol-5-yloxy)phenyl)urea] | 12
CCc1ccccc1-n1nc(C)cc1Oc1ccccc1NC(=O)Nc1ccc(OC(C)C)cc1 [Example 109, 1-(2-(1-(2-ethylphenyl)-3-methyl-1H-pyrazol-5-yloxy)phenyl)-3-(4-isopropoxyphenyl)urea] | 198
CCc1ccccc1-n1nc(C)cc1Oc1ccccc1NC(=O)Nc1ccc(N2CCCCC2)cc1 [Example 110, 1-(2-(1-(2-ethylphenyl)-3-methyl-1H-pyrazol-5-yloxy)phenyl)-3-(4-(piperidin-1-yl)phenyl)urea] | 290
CCc1ccccc1-n1nc(C)cc1Oc1ccccc1NC(=O)Nc1ccc(-n2cncn2)cc1 [Example 112, 1-(4-(1H-1,2,4-triazol-1-yl)phenyl)-3-(2-(1-(2-ethylphenyl)-3-methyl-1H-pyrazol-5-yloxy)phenyl)urea] | > 10000
Cc1cc(Oc2ccccc2NC(=O)Nc2ccc(OC(F)(F)F)cc2)n(-c2ccccc2C(C)C)n1 [Example 113, 1-(2-(1-(2-isopropylphenyl)-3-methyl-1H-pyrazol-5-yloxy)phenyl)-3-(4-(trifluoromethoxy)phenyl)urea] | 57
Cc1cc(Oc2ccccc2NC(=O)Nc2ccc(OC(F)(F)F)cc2)n(-c2ccc(F)cc2Cl)n1 [Example 114, 1-(2-(1-(2-chloro-4-fluorophenyl)-3-methyl-1H-pyrazol-5-yloxy)phenyl)-3-(4-(trifluoromethoxy)phenyl)urea] | 12
Cc1cc(Oc2ccccc2NC(=O)Nc2ccc(C3CCCCC3)cc2)n(-c2ccc(F)cc2Cl)n1 [Example 115, 1-(2-(1-(2-chloro-4-fluorophenyl)-3-methyl-1H-pyrazol-5-yloxy)phenyl)-3-(4-cyclohexylphenyl)urea] | 18
CCCc1ccccc1-n1nc(C)cc1Oc1ccccc1NC(=O)Nc1ccc(OC(F)(F)F)cc1 [Example 119, 1-(2-(1-(2-propylphenyl)-3-methyl-1H-pyrazol-5-yloxy)phenyl)-3-(4-(trifluoromethoxy)phenyl)urea] | 88
Cc1cc(Oc2ccccc2NC(=O)Nc2ccc(OC(F)(F)F)cc2)n(-c2ccccc2Br)n1 [Example 125, 1-(2-(1-(2-bromophenyl)-3-methyl-1H-pyrazol-5-yloxy)phenyl)-3-(4-(trifluoromethoxy)phenyl)urea] | 182

The remaining lines, values ahead:

IC50 [nM] | Structure (SMILES)
176 | Cc1cc(Oc2ccccc2NC(=O)Nc2ccc(-c3ccccc3)cc2)n(-c2ccccc2Cl)n1 [Example 96, 1-(4-(phenyl)-phenyl)-3-(2-(1-(2-chlorophenyl)-3-methyl-1H-pyrazol-5-yloxy)phenyl)urea]
> 10000 | Cc1cc(Oc2ccccc2NC(=O)Nc2ccc(-n3cccn3)cc2)n(-c2ccccc2Cl)n1 [Example 99, 1-(4-(1H-pyrazol-1-yl)phenyl)-3-(2-(1-(2-chlorophenyl)-3-methyl-1H-pyrazol-5-yloxy)phenyl)urea]
> 10000 | Cc1cc(Oc2ccccc2NC(=O)Nc2ccc(-n3ccnc3)cc2)n(-c2ccccc2Cl)n1 [Example 100, 1-(4-(1H-imidazol-1-yl)phenyl)-3-(2-(1-(2-chlorophenyl)-3-methyl-1H-pyrazol-5-yloxy)phenyl)urea]
1020 | CCc1ccccc1-n1nc(C)cc1Oc1ccccc1NC(=O)Nc1ccc(C#N)cc1 [Example 101, 1-(4-cyanophenyl)-3-(2-(1-(2-ethylphenyl)-3-methyl-1H-pyrazol-5-yloxy)phenyl)urea]
564 | CCc1ccccc1-n1nc(C)cc1Oc1ccccc1NC(=O)Nc1ccc(OC)cc1 [Example 103, 1-(2-(1-(2-ethylphenyl)-3-methyl-1H-pyrazol-5-yloxy)phenyl)-3-(4-methoxyphenyl)urea]
22 | CCc1ccccc1-n1nc(C)cc1Oc1ccccc1NC(=O)Nc1ccc(C(C)C)cc1 [Example 104, 1-(2-(1-(2-ethylphenyl)-3-methyl-1H-pyrazol-5-yloxy)phenyl)-3-(4-isopropylphenyl)urea]
60 | CCc1ccccc1-n1nc(C)cc1Oc1ccccc1NC(=O)Nc1ccc(C(F)(F)F)cc1 [Example 107, 1-(2-(1-(2-ethylphenyl)-3-methyl-1H-pyrazol-5-yloxy)phenyl)-3-(4-(trifluoromethyl)phenyl)urea]
133 | CCc1ccccc1-n1nc(C)cc1Oc1ccccc1NC(=O)Nc1ccc(Cl)cc1 [Example 111, 1-(4-chlorophenyl)-3-(2-(1-(2-ethylphenyl)-3-methyl-1H-pyrazol-5-yloxy)phenyl)urea]
1120 | COC(C)c1ccc(NC(=O)Nc2ccccc2Oc2cc(C)nn2-c2ccccc2Cl)cc1 (centres unmarked) [Example 116, 1-(2-(1-(2-chlorophenyl)-3-methyl-1H-pyrazol-5-yloxy)phenyl)-3-(4-(1-methoxyethyl)phenyl)urea]
> 10000 | Cc1cc(Oc2ccccc2NC(=O)Nc2ccc(C(C)N(C)C)cc2)n(-c2ccccc2Cl)n1 (centres unmarked) [Example 117, 1-(2-(1-(2-chlorophenyl)-3-methyl-1H-pyrazol-5-yloxy)phenyl)-3-(4-(1-(dimethylamino)ethyl)phenyl)urea]
> 3330 | CC(=O)c1ccc(NC(=O)Nc2ccccc2Oc2cc(C)nn2-c2ccccc2Cl)cc1 [Example 118, 1-(4-acetylphenyl)-3-(2-(1-(2-chlorophenyl)-3-methyl-1H-pyrazol-5-yloxy)phenyl)urea]
> 10000 | Cc1cc(Oc2ccccc2NC(=O)Nc2ccc(C3CCNCC3)cc2)n(-c2ccccc2Cl)n1 [Example 120, 1-(2-(1-(2-chlorophenyl)-3-methyl-1H-pyrazol-5-yloxy)phenyl)-3-(4-(piperidin-4-yl)phenyl)urea]
> 10000 | CC(=O)N1CCC(c2ccc(NC(=O)Nc3ccccc3Oc3cc(C)nn3-c3ccccc3Cl)cc2)CC1 [Example 121, 1-(4-(1-acetylpiperidin-4-yl)phenyl)-3-(2-(1-(2-chlorophenyl)-3-methyl-1H-pyrazol-5-yloxy)phenyl)urea]
> 10000 | Cc1cc(Oc2ccccc2NC(=O)Nc2ccc(C3CCN(C)CC3)cc2)n(-c2ccccc2Cl)n1 [Example 122, 1-(2-(1-(2-chlorophenyl)-3-methyl-1H-pyrazol-5-yloxy)phenyl)-3-(4-(1-methylpiperidin-4-yl)phenyl)urea]
121 | Cc1cc(Oc2ccccc2NC(=O)Nc2ccc(C3CC3)cc2)n(-c2ccccc2Cl)n1 [Example 123, 1-(2-(1-(2-chlorophenyl)-3-methyl-1H-pyrazol-5-yloxy)phenyl)-3-(4-cyclopropylphenyl)urea]
32 | Cc1cc(Oc2ccccc2NC(=O)Nc2ccc(C3CCCC3)cc2)n(-c2ccccc2Cl)n1 [Example 124, 1-(2-(1-(2-chlorophenyl)-3-methyl-1H-pyrazol-5-yloxy)phenyl)-3-(4-cyclopentylphenyl)urea]
170 | Cc1cc(Oc2ccccc2NC(=O)Nc2ccc(Br)cc2)n(-c2ccccc2Cl)n1 [Example 126, 1-(4-bromophenyl)-3-(2-(1-(2-chlorophenyl)-3-methyl-1H-pyrazol-5-yloxy)phenyl)urea]
158 | Cc1cc(Oc2ccccc2NC(=O)Nc2ccc(C3CCSCC3)cc2)n(-c2ccccc2Cl)n1 [Example 127, 1-(2-(1-(2-chlorophenyl)-3-methyl-1H-pyrazol-5-yloxy)phenyl)-3-(4-(tetrahydro-2H-thiopyran-4-yl)phenyl)urea]
